One series concerns the target T1, human PR (Homo sapiens, UniProt P06401).
T1 construct: expressed in transfected cells; host or cells: CV-1 cells (electroporated with pLEM-hPR-B and pGL3-2xPRE-luciferase)
T1 sequence (P06401 1-933): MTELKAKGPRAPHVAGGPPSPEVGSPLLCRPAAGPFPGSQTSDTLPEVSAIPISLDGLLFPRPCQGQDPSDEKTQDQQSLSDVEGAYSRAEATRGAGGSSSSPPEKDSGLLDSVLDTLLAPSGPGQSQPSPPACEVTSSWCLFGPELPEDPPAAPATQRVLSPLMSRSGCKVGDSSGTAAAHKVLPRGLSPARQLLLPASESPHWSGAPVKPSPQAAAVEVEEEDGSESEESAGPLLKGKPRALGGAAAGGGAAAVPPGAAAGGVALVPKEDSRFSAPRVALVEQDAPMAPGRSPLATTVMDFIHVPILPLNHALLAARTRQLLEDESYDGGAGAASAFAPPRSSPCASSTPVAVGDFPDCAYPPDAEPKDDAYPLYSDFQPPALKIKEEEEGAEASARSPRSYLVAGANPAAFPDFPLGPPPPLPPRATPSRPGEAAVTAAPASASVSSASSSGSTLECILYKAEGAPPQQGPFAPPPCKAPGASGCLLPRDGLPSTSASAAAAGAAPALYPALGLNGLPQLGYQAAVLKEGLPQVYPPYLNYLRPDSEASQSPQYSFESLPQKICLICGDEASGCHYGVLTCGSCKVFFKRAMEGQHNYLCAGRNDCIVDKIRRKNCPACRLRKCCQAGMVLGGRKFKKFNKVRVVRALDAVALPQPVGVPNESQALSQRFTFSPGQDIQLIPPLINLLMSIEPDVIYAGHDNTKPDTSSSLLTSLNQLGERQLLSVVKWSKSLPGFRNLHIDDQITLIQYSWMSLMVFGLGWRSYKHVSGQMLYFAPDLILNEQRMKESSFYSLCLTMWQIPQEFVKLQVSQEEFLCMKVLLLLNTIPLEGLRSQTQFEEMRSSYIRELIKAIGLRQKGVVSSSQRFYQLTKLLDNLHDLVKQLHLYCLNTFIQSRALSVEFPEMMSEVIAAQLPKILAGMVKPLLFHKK
Description: PRE-luciferase assay in CV-1 cells. In kind it is cell-based. The note with it: read-out: hPR CV-1 IC50.

The subject of a further series is T47D cells. Nature of the series: T47D cell proliferation assay (BrdU incorporation). Particulars: half-maximal increase in BrdU incorporation in T47D cells; individual studies. It counts as cell-based. Here is the method:
3. T47D Cell Proliferation Assay
The objective of this assay is the determination of progestational and antiprogestational potency by using a cell proliferation assay in T47D cells. A compound's effect on DNA synthesis in T47D cells is measured.
DMEM:F12 (1:1) (GIBCO, BRL) supplemented with 10% (v/v) fetal bovine serum (not heat-inactivated), 100 U/ml penicillin, […], and 2 mM GlutaMax (GIBCO, BRL).
Minimum Essential Medium (MEM) (#51200-038GIBCO, BRL) phenol red-free supplemented with 0.5% charcoal stripped fetal bovine serum, 100 U/ml penicillin, 200 mg/ml streptomycin, and 2 mM GlutaMax (GIBCO, BRL).
Stock T47 D cells are maintained in growth medium. For BrdU incorporation assay, cells are plated in 96-well plates (Falcon, Becton Dickinson Labware) at 10,000 cells/well in growth medium. […]
At the end of BrdU labeling, the medium is removed and BrdU incorporation is measured using a cell proliferation ELISA kit (#RPN 250, Amersham Life Science) according to manufacturer's instructions. […] Then 25 μl of 1 M sulfuric acid is added to each well to stop color reaction and optical density is read in a plate reader at 450 nm within 5 min.
Square root-transformed data are used for analysis of variance and nonlinear dose response curve fitting for both agonist and antagonist modes. […] EC50 or IC50 values are calculated from the retransformed values. […]
For orientation: Dividing cells build labelled thymidine or BrdU into new DNA.

Series [1] concerns rat uterine decidualization. Description: Rat decidualization assay. It counts as in vivo. The note with it: for EC50: s.c., half-maximal increase in decidual response (uterine wet weight), ovariectomized rats, individual studies.

“And” between values parts separate entries of the source, which are not always exact repeats. Equal entries are not always repeated. Where two headings read alike, the source gives them in different places.

Consider `CC1(C)OC(C)(C(F)(F)F)Nc2ccc(-c3cccc(Cl)c3)cc21` (centres unmarked) [Compound 2, 6-(3-Chloro-phenyl)-2,4,4-trimethyl-2-trifluoromethyl-1,4-dihydro-2H-benzo[d][1,3]oxazine], for which the IC50 at human PR turned out to be 50 nM.

On to `CC(=O)O[C@]1(C(C)=O)CC[C@H]2[C@@H]3C[C@H](C)C4=CC(=O)CC[C@]4(C)[C@H]3CC[C@@]21C` [MPA, medroxyprogesterone acetate], for which the EC50 in the series on T47D cells is 0.019 nM. As to `C#C[C@]1(O)CC[C@H]2[C@@H]3CCC4=CC(=O)CC[C@@H]4[C@H]3C(=C)C[C@@]21CC` [3-Ketodesogestrel], in series [1], the EC50 is 0.10 mg/kg and 0.06 mg/kg and 0.11 mg/kg.

Regarding `C#C[C@]1(O)CC[C@H]2[C@@H]3CCC4=CC(=O)CC[C@@H]4[C@H]3CC[C@@]21CC` [Levonorgestrel], the EC50 in series [1] was 0.08 mg/kg and 0.12 mg/kg and 0.09 mg/kg (2×). For the molecule `CC1OC(C)(C)Nc2ccc(-c3cccc([N+](=O)[O-])c3)cc21` (centres unmarked) [Compound 3, 6-(3-Nitro-phenyl)-2,2,4,-trimethyl-1,4-dihydro-2H-benzo[d][1,3]oxazine], the IC50 on human PR (CV-1 cells co-transfected with human PR and PRE-luciferase, decrease in 3 nM progesterone induced PRE-luciferase activity) was 1680 nM.

The term melting point denotes the temperature of the solid-liquid transition. As for `CC1OC(C)(C)c2cc(-c3ccc(C#N)n3C)ccc2N1C(=O)OCC1c2ccccc2-c2ccccc21` (centres unmarked) [Example 21, 9H-Fluoren-9-ylmethyl 6-(5-cyano-1-methyl-1H-pyrrol-2-yl)-2,4,4-trimethyl-2H-3,1-benzoxazine-1(4H)-carboxylate], the melting point was in the range of 63 to 64 °C. With `C[C@H](O)C(=O)[C@@]1(C)CC[C@H]2[C@@H]3CCC4=CC(=O)CCC4=C3CC[C@@]21C` [Trimegestone], the EC50 in the series with T47D cells was 0.017 nM and 0.014 nM and 0.019 nM. `CC1(C2CC2)NC(=O)Nc2ccc(-c3cccc(Cl)c3)cc21` (centres unmarked) [Example 9, 6-(3-Chlorophenyl)-4-cyclopropyl-4-methyl-3,4-dihydro-1H-quinazolin-2-one] yielded a melting point of 125 to 127 °C. In turn, `C[C@@H]1Nc2ccc(-c3cc(F)cc(C#N)c3)cc2[C@](C)(c2ccccc2)O1` [Example 17, 3-[(2R,4S)-2,4-Dimethyl-4-phenyl-1,4-dihydro-2H-3,1-benzoxazin-6yl]-5-fluorobenzonitrile] registered a melting point of 128 to 129 °C.

Turning to `CC1Nc2ccc(-c3cccc(Cl)c3)cc2C(C)(C)O1` (centres unmarked) [Example 28, 6-(3-Chlorophenyl)-2,4,4-trimethyl-1,4-dihydro-2H-3,1-benzoxazine], the melting point is 144 to 146 °C.

In the case of `CC1(C)CC(=S)Nc2ccc(-c3cc(F)cc(C#N)c3)cc21` [Example 46, 3-(4,4-Dimethyl-2-thioxo-1,2,3,4-tetrahydroquinolin-6-yl)-5-fluorobenzonitrile], the melting point is 240 to 242 °C (dec.).

Turning to `CC1Nc2ccc(-c3coc(C#N)c3)cc2C(C)(C)O1` (centres unmarked) [Example 31, 4-(2,4,4-Trimethyl-1,4-dihydro-2H-3,1-benzoxazin-6-yl)2-furonitrile], the melting point was 116 to 118 °C.

Molecule `Cc1cc(C#N)sc1-c1ccc2c(c1)C(C)(C)OC(C(F)(F)F)N2` (centres unmarked) [Example 38, 5-[4,4-Dimethyl-2-(trifluoromethyl)-1,4-dihydro-2H-3,1-benzoxazin-6-yl]-4-methylthiophene-2-carbonitrile] returned a melting point of 97 to 98 °C.

On to `CC1(C)OC(C(F)(F)F)Nc2ccc(-c3cc(F)cc(C#N)c3)cc21` (centres unmarked) [Example 32, 3-[4,4-Dimethyl-2-(trifluoromethyl)-1,4-dihydro-2H-3,1-benzoxazin-6-yl]-5-fluorobenzonitrile], for which the melting point lay in the range of 102 to 103 °C.

`CC1(C)CC(=S)Nc2ccc(-c3cccc(F)c3)cc21` [Example 44, 6-(3-Fluorophenyl)-4,4-dimethyl-3,4-dihydroquinoline-2(1H)-thione] came in with a melting point of 209 to 211 °C.

For the molecule `CC1Nc2ccc(-c3ccc(F)c(Cl)c3)cc2C(C)(C)O1` (centres unmarked) [Example 29, 6-(3-Chloro-4-fluorophenyl)-2,4,4-trimethyl-1,4-dihydro-2H-3,1-benzoxazine], the melting point was 173 to 175 °C. As for `CC#C[C@]1(O)CC[C@H]2[C@@H]3CCC4=CC(=O)CCC4=C3[C@@H](c3ccc(N(C)C)cc3)C[C@@]21C` [RU 486], the IC50 in series [1] (p.o., half-maximal decrease in EC50 progesterone induced decidual response, rats) was 0.21 mg/kg and 0.14 mg/kg.
